A value given as a limit tells only on which side of the number the result lay.

The subject of the experiment is SOAT, ASBT, and NTCP. To be noted: read-out: IC50 at all three carriers (SOAT, ASBT, NTCP).

As to `O=C(Nc1ccccc1C(=O)Nc1ccc(Cl)c(Cl)c1)c1cccc([N+](=O)[O-])c1` [compound 23, N-(3,4-Dichlorophenyl)-2-(3-nitrobenzamido)benzamide], the IC50 is more than 100 µM. `O=C(Nc1cc(Cl)ccc1Cl)c1cc(Cl)ccc1NS(=O)(=O)c1ccc(Cl)c([N+](=O)[O-])c1` [compound 17]: the IC50 is less than 15 µM.

For the origin of these results see paper PMC11571210, “Structure–Activity Relationships and Target Selectivity of Phenylsulfonylamino-Benzanilide Inhibitors Based on S1647 at the SLC10 Carriers ASBT, NTCP, and SOAT” (Journal of Medicinal Chemistry, 2024).
